Source: ChEMBL document CHEMBL5244234, “Janus kinases (JAKs): The efficient therapeutic targets for autoimmune diseases and myeloproliferative disorders” (Eur J Med Chem, 2020)

Experiments:
[1] = target: T1, Tyrosine-protein kinase JAK2 (Homo sapiens, UniProt O60674); assay: Inhibition of JAK2 (unknown origin)
[2] = target: T2, Tyrosine-protein kinase JAK3 (Homo sapiens, UniProt P52333); assay: Inhibition of JAK3 (unknown origin)
T2 sequence (P52333 whole entry): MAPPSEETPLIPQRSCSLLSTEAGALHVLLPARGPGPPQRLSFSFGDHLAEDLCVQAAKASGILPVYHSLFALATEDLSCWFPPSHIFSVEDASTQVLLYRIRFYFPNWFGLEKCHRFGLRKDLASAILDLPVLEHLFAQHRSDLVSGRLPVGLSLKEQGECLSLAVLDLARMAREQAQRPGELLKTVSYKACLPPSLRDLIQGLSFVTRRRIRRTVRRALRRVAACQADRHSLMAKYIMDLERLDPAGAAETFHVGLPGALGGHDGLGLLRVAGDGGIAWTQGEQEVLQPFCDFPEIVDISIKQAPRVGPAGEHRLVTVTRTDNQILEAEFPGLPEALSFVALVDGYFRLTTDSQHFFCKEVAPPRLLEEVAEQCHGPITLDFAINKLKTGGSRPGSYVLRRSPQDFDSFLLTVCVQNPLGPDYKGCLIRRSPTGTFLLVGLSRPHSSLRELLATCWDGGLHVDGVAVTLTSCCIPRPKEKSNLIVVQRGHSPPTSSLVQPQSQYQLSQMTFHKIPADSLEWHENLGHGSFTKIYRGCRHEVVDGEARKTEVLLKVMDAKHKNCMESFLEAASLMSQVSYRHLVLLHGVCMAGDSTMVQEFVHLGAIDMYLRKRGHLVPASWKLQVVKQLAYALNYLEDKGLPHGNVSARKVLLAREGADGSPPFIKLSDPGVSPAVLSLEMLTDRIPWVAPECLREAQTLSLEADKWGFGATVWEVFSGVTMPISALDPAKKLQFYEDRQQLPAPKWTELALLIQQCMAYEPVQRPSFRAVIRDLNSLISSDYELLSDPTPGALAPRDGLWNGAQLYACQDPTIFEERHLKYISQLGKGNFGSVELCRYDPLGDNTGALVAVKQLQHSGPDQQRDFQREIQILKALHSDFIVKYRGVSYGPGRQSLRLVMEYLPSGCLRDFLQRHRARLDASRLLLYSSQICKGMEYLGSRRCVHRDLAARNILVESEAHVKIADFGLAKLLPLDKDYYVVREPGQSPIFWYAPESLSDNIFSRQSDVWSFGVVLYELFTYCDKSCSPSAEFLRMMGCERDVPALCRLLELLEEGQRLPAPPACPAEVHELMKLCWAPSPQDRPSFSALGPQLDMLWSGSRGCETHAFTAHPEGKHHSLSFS

[3] = target: T3, Tyrosine-protein kinase JAK1 (Homo sapiens, UniProt P23458); assay: Inhibition of JAK1 (unknown origin)
T3 sequence (P23458 whole entry): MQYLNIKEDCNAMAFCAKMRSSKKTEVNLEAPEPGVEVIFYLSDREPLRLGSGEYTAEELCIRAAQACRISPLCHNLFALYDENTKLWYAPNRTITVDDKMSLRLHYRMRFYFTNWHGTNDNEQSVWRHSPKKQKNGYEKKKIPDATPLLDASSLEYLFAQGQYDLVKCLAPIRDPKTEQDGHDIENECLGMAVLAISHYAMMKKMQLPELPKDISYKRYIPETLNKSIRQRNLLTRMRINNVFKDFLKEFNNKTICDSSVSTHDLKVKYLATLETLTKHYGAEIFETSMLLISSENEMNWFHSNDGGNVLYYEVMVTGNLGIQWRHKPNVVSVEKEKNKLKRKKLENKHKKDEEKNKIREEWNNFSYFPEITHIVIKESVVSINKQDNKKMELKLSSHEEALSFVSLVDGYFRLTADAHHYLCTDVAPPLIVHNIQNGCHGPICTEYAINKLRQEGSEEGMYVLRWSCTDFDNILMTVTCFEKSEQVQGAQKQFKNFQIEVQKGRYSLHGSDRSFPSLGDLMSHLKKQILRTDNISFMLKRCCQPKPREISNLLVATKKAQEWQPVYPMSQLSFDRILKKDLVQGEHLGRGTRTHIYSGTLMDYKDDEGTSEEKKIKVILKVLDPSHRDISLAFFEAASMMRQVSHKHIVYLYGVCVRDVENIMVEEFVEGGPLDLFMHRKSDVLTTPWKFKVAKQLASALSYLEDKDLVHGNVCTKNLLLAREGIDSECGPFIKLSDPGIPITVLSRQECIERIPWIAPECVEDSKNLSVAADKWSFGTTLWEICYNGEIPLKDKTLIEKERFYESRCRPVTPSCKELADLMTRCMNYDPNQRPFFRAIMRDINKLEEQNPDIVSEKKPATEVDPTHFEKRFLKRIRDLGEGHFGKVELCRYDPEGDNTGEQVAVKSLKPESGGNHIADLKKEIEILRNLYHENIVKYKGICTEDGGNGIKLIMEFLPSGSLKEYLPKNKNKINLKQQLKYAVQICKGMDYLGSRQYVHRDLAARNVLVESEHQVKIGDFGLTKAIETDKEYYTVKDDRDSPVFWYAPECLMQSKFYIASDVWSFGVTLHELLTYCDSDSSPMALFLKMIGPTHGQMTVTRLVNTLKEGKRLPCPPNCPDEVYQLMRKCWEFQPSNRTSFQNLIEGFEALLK

[4] = target: T4, Non-receptor tyrosine-protein kinase TYK2 (Homo sapiens, UniProt P29597); assay: Inhibition of TYK2 (unknown origin)
T4 sequence (P29597 whole entry): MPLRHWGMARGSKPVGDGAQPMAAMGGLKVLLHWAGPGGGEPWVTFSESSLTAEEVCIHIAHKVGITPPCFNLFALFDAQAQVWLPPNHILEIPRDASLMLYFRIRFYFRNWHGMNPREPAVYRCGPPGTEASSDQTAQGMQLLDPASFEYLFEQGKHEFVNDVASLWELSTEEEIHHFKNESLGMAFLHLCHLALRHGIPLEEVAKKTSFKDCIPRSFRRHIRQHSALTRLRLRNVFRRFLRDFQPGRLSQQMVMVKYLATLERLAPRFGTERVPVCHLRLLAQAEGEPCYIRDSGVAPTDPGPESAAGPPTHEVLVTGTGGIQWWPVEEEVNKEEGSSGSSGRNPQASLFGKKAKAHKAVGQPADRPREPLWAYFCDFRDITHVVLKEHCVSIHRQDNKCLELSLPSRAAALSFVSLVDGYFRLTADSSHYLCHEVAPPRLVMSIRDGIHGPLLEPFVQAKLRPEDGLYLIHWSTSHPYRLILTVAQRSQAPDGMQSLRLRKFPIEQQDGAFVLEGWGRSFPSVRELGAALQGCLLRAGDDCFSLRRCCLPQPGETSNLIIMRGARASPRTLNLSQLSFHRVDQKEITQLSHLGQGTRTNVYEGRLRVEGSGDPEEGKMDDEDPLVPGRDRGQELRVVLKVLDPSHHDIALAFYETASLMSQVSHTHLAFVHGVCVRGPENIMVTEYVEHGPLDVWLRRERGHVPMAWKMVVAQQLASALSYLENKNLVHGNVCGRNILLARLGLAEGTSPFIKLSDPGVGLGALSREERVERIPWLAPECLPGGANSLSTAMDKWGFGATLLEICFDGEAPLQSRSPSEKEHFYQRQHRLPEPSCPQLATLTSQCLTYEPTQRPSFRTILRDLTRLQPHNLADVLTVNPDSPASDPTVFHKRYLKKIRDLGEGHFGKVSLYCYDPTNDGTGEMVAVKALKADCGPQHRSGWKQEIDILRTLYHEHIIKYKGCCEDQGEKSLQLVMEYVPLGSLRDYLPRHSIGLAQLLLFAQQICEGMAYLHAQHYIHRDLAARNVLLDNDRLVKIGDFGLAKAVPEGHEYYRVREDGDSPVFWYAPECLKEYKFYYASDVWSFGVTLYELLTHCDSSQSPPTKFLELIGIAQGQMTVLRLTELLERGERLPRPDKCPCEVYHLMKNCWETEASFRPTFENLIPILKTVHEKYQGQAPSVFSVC

Homo sapiens [5] = species: Homo sapiens; assay: Selectivity index, ratio of IC50 for inhibition of JAK2 (unknown origin) to IC50 for inhibition of JAK1 (unknown origin)
Homo sapiens [6] = species: Homo sapiens; assay: Selectivity index, ratio of IC50 for inhibition of JAK3 (unknown origin) to IC50 for inhibition of JAK1 (unknown origin)
Homo sapiens [7] = species: Homo sapiens; assay: Selectivity index, ratio of IC50 for inhibition of TYK2 (unknown origin) to IC50 for inhibition of JAK1 (unknown origin)
[8] = target: Signal transducer and activator of transcription 3 (Homo sapiens, UniProt P40763); assay: Inhibition of IL6-stimulated STAT3 signalling in human CD4+ T cells; format: cell-based, T cell
[9] = target: T3, Tyrosine-protein kinase JAK1; assay: Inhibition of JAK1 (unknown origin) assessed as inhibition constant
[10] = Inhibition of STAT5 phosphorylation in IL-2 stimulated mouse HT-2 cells; format: cell-based; details: HT2
[11] = Inhibition of T cell proliferation in Balb/c mouse spleenocytes by MLR assay; format: toxicity, cell-based; details: Splenocyte
[12] = Inhibition of T cell proliferation in CBA mouse spleenocytes by MLR assay; format: toxicity, cell-based; details: Splenocyte
[13] = Inhibition of IL-2 stimulated human T cell proliferation; format: toxicity, cell-based
B cell = assay: Inhibition of cell proliferation in CD40L/IL-4-induced human B cells; format: toxicity, cell-based
HCT-116 [14] = assay: Antitumor activity against human HCT-116 cells xenografted in Balb/c mouse assessed as tumor growth inhibition at 15 mg/kg relative to control; format: functional; details: read-out: TGI
HCT-116 [15] = assay: Antitumor activity against human HCT-116 cells xenografted in Balb/c mouse assessed as tumor growth inhibition at 20 mg/kg relative to control; format: functional; details: read-out: TGI
[16] = target: T3, Tyrosine-protein kinase JAK1; assay: Inhibition of human JAK1 kinase domain incubated for 1 hrs in the presence of ATP by spectrophotometric analysis
[17] = target: T1, Tyrosine-protein kinase JAK2; assay: Inhibition of human JAK2 kinase domain incubated for 1 hrs in the presence of ATP by spectrophotometric analysis
[18] = target: T2, Tyrosine-protein kinase JAK3; assay: Inhibition of human JAK3 kinase domain incubated for 1 hrs in the presence of ATP by spectrophotometric analysis
[19] = target: T4, Non-receptor tyrosine-protein kinase TYK2; assay: Inhibition of human TYK2 kinase domain incubated for 1 hrs in the presence of ATP by spectrophotometric analysis
Homo sapiens [20] = species: Homo sapiens; assay: Selectivity index, ratio of IC50 for inhibition of human JAK1 kinase domain to IC50 for inhibition of human JAK2 kinase domain incubated for 1 hrs in the presence of ATP by spectrophotometric analysis
Homo sapiens [21] = species: Homo sapiens; assay: Selectivity index, ratio of IC50 for inhibition of human JAK3 kinase domain to IC50 for inhibition of human JAK2 kinase domain incubated for 1 hrs in the presence of ATP by spectrophotometric analysis
Homo sapiens [22] = species: Homo sapiens; assay: Selectivity index, ratio of IC50 for inhibition of human TYK2 kinase domain to IC50 for inhibition of human JAK2 kinase domain incubated for 1 hrs in the presence of ATP by spectrophotometric analysis
BaF3 [23] = assay: Antiproliferative activity against mouse BaF3 cells harboring JAK2 V617F mutation incubated for 72 hrs by MTT assay; format: functional, cell-based; details: BaF3, 72 h
BaF3 [24] = assay: Antiproliferative activity against mouse BaF3 cells expressing TEL fused JAK2 incubated for 72 hrs by MTT assay; format: functional, cell-based; details: BaF3, 72 h
[25] = target: T2, Tyrosine-protein kinase JAK3; assay: Inhibition of JAK3 (unknown origin) by Lanthascreen kinase assay
BaF3 [26] = assay: Inhibition of cell proliferation in mouse BaF3 cells expressing JAK2 V617F mutant; format: toxicity, cell-based
[27] = Inhibition of STAT5 phosphorylation in mouse BaF3 cells expressing JAK2 V617F mutant incubated for 5 hrs by Alphascreen SureFire assay; format: cell-based; details: BaF3, 5 h
[28] = target: Tyrosine-protein kinase JAK2 (Mus musculus, UniProt Q62120); assay: Inhibition of IL-3 stimulated wild type JAK2-mediated signalling in mouse BaF3 cells preincubated with compound for 5 hrs followed by IL-3 stimulation and measured after 20 mins by Alphascreen SureFire assay; format: cell-based
Tyrosine-protein kinase JAK2 (Mus musculus, UniProt Q62120), sequence (Q62120 whole entry): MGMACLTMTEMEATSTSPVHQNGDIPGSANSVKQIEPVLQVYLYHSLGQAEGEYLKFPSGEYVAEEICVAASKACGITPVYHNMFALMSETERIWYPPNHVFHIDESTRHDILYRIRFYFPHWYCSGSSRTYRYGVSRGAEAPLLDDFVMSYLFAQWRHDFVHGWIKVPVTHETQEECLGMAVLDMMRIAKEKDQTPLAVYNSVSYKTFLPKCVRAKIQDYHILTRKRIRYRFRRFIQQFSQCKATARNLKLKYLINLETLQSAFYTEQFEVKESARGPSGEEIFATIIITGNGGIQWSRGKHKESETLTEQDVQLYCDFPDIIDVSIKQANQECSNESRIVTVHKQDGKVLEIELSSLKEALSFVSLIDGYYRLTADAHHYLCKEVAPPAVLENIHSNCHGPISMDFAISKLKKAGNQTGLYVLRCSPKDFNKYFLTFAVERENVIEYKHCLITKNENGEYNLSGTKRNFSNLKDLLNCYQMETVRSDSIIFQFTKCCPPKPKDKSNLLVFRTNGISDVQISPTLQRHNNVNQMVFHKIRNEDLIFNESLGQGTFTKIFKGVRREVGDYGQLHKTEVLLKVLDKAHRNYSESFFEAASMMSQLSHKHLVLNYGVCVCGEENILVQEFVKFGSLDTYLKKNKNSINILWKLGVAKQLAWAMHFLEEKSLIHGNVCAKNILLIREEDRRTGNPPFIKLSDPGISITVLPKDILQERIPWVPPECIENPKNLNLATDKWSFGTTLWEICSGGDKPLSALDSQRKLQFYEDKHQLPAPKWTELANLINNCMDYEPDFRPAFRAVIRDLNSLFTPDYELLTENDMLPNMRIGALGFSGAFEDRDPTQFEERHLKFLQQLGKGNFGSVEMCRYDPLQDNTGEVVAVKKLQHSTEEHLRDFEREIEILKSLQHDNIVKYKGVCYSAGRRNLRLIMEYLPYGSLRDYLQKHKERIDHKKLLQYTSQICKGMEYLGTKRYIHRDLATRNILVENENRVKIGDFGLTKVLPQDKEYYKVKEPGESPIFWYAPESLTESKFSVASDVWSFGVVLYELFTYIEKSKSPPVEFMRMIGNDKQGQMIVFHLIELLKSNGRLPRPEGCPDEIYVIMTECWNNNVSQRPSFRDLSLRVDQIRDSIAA

BaF3 [29] = assay: Inhibition of cell proliferation in IL-3 stimulated mouse BaF3 cells expressing wild-type JAK2; format: toxicity, cell-based
[30] = target: Proto-oncogene tyrosine-protein kinase receptor Ret (Homo sapiens, UniProt P07949); assay: Inhibition of RET (unknown origin)
[31] = target: T2, Tyrosine-protein kinase JAK3; assay: Inhibition of recombinant human JAK3 (781 to 1124 residues)
[32] = target: T4, Non-receptor tyrosine-protein kinase TYK2; assay: Inhibition of recombinant human TYK2 (870 to 1187 residues)
[33] = target: T1, Tyrosine-protein kinase JAK2; assay: Inhibition of JAK2 (unknown origin) by Lanthascreen kinase assay
BaF3 [34] = assay: Antiproliferative activity against mouse BaF3 cells harboring JAK2 V617F mutant assessed as inhibition of cell proliferation incubated for 72 hrs by XTT assay; format: toxicity, cell-based; details: BaF3, 72 h
[35] = Antiproliferative activity against mouse BaF3 cells assessed as inhibition of cell proliferation incubated for 72 hrs by XTT assay; format: toxicity, cell-based
HEL = assay: cells; details: Homo sapiens, 72 h
[36] = target: T3, Tyrosine-protein kinase JAK1; assay: Competitive inhibition of JAK1 (unknown origin) in the presence of ATP
[37] = target: T1, Tyrosine-protein kinase JAK2; assay: Competitive inhibition of JAK2 (unknown origin) in the presence of ATP
U-266 = assay: Antiproliferative activity against human U266B1 cells assessed as inhibition of cell proliferation; format: functional, cell-based
Rattus norvegicus [38] = assay: Antiarthritic activity in CFA-induced Lewis rat assessed as increase in hind paw volume at 1 mg/kg administered for 2 weeks by plethysmometer relative to control; format: functional
Rattus norvegicus [39] = assay: Antiarthritic activity in CFA-induced Lewis rat assessed as increase in hind paw volume at 3 to 10 mg/kg administered for 2 weeks by plethysmometer relative to control; format: functional; details: dose 3-10 mg/kg

T1 sequence (O60674 whole entry): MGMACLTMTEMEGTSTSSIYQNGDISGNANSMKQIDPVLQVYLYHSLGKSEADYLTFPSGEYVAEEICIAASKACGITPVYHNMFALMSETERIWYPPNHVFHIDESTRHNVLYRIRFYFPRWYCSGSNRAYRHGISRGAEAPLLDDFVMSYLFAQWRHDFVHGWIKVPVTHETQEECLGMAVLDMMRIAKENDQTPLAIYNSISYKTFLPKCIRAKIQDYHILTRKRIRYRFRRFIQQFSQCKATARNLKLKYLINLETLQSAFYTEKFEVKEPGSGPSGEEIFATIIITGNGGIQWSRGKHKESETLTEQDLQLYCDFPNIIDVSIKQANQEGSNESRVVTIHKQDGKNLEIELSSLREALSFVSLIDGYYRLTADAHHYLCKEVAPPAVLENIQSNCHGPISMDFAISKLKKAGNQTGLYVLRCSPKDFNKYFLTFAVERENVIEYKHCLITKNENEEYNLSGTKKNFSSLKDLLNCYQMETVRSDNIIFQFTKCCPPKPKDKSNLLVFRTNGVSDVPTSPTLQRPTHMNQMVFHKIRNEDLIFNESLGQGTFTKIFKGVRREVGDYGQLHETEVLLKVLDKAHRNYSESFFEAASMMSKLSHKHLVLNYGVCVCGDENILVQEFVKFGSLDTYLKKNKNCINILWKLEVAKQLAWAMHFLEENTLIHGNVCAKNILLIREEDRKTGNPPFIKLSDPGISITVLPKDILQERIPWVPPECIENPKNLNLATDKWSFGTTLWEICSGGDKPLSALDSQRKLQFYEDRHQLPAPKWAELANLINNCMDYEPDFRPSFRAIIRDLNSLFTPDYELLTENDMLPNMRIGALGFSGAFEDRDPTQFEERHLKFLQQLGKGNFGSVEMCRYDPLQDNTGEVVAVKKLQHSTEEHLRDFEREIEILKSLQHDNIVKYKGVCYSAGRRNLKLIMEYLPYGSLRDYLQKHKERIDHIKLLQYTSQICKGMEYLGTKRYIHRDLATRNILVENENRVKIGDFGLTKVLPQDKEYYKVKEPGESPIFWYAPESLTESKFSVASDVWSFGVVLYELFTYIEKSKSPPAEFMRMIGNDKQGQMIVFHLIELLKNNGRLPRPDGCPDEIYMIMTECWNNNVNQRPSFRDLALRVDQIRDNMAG

N#CCC1(n2cc(-c3ncnc4[nH]ccc34)cn2)CN(C2CCN(C(=O)c3ccnc(C(F)(F)F)c3F)CC2)C1 [ITACITINIB]
IC50 [1]: 63 nM
IC50 [2]: 2000 nM
IC50 [3]: 2 nM
IC50 [4]: 795 nM
Ratio IC50 (Homo sapiens [5]): > 20
Ratio IC50 (Homo sapiens [6]): > 100
Ratio IC50 (Homo sapiens [7]): > 100

CN(C)C(=O)/C(C#N)=C/c1ccc(-c2nc3cnc4[nH]ccc4c3n2C2CCCCC2)o1
IC50 [8]: 1000 nM

CC[C@@](C)(Nc1ccnc(-c2c[nH]c3ncccc23)n1)C(=O)NCC(F)(F)F [DECERNOTINIB]
Ki [9]: 11 nM
IC50 [10]: 50 nM
IC50 [11]: 50 nM
IC50 [12]: 50 nM
IC50 [13]: 50 nM
IC50 (B cell): 50 nM

O=C(Nc1c[nH]nc1-c1nc2ccc(CN3CCOCC3)cc2[nH]1)NC1CC1 [AT-9283]
inhibition in vivo at 15 mg/kg (HCT-116 [14]): 67%
inhibition in vivo at 20 mg/kg (HCT-116 [15]): 76%

C[C@H](Nc1cc(-c2cnn(C)c2)cc(Nc2cnccn2)n1)c1ccc(F)cc1 [NS-018]
IC50 [16]: 33 nM
IC50 [17]: 0.72 nM
IC50 [18]: 39 nM
IC50 [19]: 22 nM
Ratio IC50 (Homo sapiens [20]): 46
Ratio IC50 (Homo sapiens [21]): 54
Ratio IC50 (Homo sapiens [22]): 31
IC50 (BaF3 [23]): 11 nM
IC50 (BaF3 [24]): 11 nM

Cc1cc(Nc2cc(CN3CCOCC3)c3nc(C)c(Cc4ccc(Cl)cc4F)n3n2)n[nH]1 [GANDOTINIB]
IC50 [4]: 44 nM
IC50 [25]: 48 nM
IC50 (BaF3 [26]): 55 nM
IC50 [27]: 20 nM
IC50 [28]: 1180 nM
IC50 (BaF3 [29]): 1310 nM

Cc1cnc(Nc2ccc(N3CCN(C)CC3)cc2)nc1Nc1cccc(S(=O)(=O)NC(C)(C)C)c1
IC50 [30]: 17 nM

CNS(=O)(=O)C[C@H]1CC[C@H](N(C)c2ncnc3[nH]ccc23)CC1 [OCLACITINIB]
IC50 [31]: 99 nM
IC50 [32]: 84 nM

Cc1cc(Nc2ccc3nc(C)n([C@@H]4CCc5ccc(F)cc54)c3c2)[nH]n1
IC50 [33]: 2 nM
IC50 [25]: 8 nM

Cc1cnc(Nc2ccc(OCCN3CCCC3)cc2)nc1Nc1cccc(S(=O)(=O)NC(C)(C)C)c1 [FEDRATINIB]
IC50 (BaF3 [34]): 270 nM
IC50 at 72 h [35]: 420 nM
IC50 (HEL): 305 nM

Cc1cc(Nc2nc(N[C@@H](C)c3ncc(F)cn3)ncc2Cl)n[nH]1 [AZD-1480]
IC50 [36]: 1.3 nM
IC50 [37]: 0.4 nM

CC(C)(C)c1nc2c3ccc(F)cc3c3c(=O)[nH]ccc3c2[nH]1
IC50 (U-266): 250 nM

CCS(=O)(=O)N1CC(CC#N)(n2cc(-c3ncnc4[nH]ccc34)cn2)C1 [BARICITINIB]
Activity (Rattus norvegicus [38]): 50%
Activity (Rattus norvegicus [39]): >95%

CC1(C)CN(C(=O)c2ccc(-c3cccc4nc(NC(=O)C5CC5)nn34)cc2)C1 [SOLCITINIB]
IC50 [1]: 108 nM
IC50 [2]: 539 nM
IC50 [3]: 9.8 nM
IC50 [4]: 225 nM
Ratio IC50 (Homo sapiens [5]): 11
Ratio IC50 (Homo sapiens [6]): 55
Ratio IC50 (Homo sapiens [7]): 23
